The kinase profiling compilation of Christmann-Franck et al. (2016)
Where “and” joins values, the source holds several entries; their conditions need not be identical. Equal entries are not always repeated.

The molecules below were run against PAK2 (human) (UniProt Q13177) (assay: radiometric filter-binding kinase assay, Kinase HotSpot). Conditions: compound 0.5 µM; ATP 10 µM.
For `Oc1ccc(-c2nc(-c3ccc(F)cc3)c(-c3ccncc3)[nH]2)cc1`, the residual activity was 94.1%.
For `Cc1ccc(NC(=O)c2ccc(CN3CCN(C)CC3)cc2)cc1Nc1nc(-c2cccnc2)cs1`, the residual activity was 111%.
`CC(C)[C@H](CO)Nc1nc(Nc2cccc(Cl)c2)c2ncn(C(C)C)c2n1` showed a residual activity of 103%.
Molecule `COc1ccc(-c2cnc3c(-c4ccsc4)cnn3c2)cc1` has a residual activity of 79.1%.

What follows are molecules tested against DDR2 (human) (UniProt Q16832) in the same assay as above. Conditions: compound 0.5 µM; ATP 10 µM.
In the case of `Oc1ccc(-c2nc(-c3ccc(F)cc3)c(-c3ccncc3)[nH]2)cc1`, the residual activity was 86.3%.
With `Cc1ccc(NC(=O)c2ccc(CN3CCN(C)CC3)cc2)cc1Nc1nc(-c2cccnc2)cs1` the residual activity was 36.4%.
`CC(C)[C@H](CO)Nc1nc(Nc2cccc(Cl)c2)c2ncn(C(C)C)c2n1` showed a residual activity of 99.1%.
In the case of `COc1ccc(-c2cnc3c(-c4ccsc4)cnn3c2)cc1`, the residual activity was 98.2%.

Each molecule was assayed against GSK3A (human) (UniProt P49840) in the same assay as above. Conditions: compound 0.5 µM; ATP 10 µM.
Molecule `Oc1ccc(-c2nc(-c3ccc(F)cc3)c(-c3ccncc3)[nH]2)cc1` has a residual activity of 91.1%.
Molecule `Cc1ccc(NC(=O)c2ccc(CN3CCN(C)CC3)cc2)cc1Nc1nc(-c2cccnc2)cs1` has a residual activity of 101%.
With `CC(C)[C@H](CO)Nc1nc(Nc2cccc(Cl)c2)c2ncn(C(C)C)c2n1` the residual activity was 108%.
Work on `COc1ccc(-c2cnc3c(-c4ccsc4)cnn3c2)cc1` yielded a residual activity of 92.5%.

The molecules below were run against PRKG1 (human) (UniProt Q13976) in the same assay as above. Conditions: compound 0.5 µM; ATP 10 µM.
`Oc1ccc(-c2nc(-c3ccc(F)cc3)c(-c3ccncc3)[nH]2)cc1` was tested, and the residual activity was 87% and 90.4%.
For `Cc1ccc(NC(=O)c2ccc(CN3CCN(C)CC3)cc2)cc1Nc1nc(-c2cccnc2)cs1`, the residual activity was 77.6% and 93.8%.
In the case of `CC(C)[C@H](CO)Nc1nc(Nc2cccc(Cl)c2)c2ncn(C(C)C)c2n1`, the residual activity was 71.4% and 90.2%.
For `COc1ccc(-c2cnc3c(-c4ccsc4)cnn3c2)cc1`, the residual activity was 86.5% and 89.1%.

What follows are molecules tested against KDR (human) (UniProt P35968) in the same assay as above. Conditions: compound 0.5 µM; ATP 10 µM.
For `Oc1ccc(-c2nc(-c3ccc(F)cc3)c(-c3ccncc3)[nH]2)cc1`, the residual activity was 99.9%.
Molecule `Cc1ccc(NC(=O)c2ccc(CN3CCN(C)CC3)cc2)cc1Nc1nc(-c2cccnc2)cs1` has a residual activity of 106%.
`CC(C)[C@H](CO)Nc1nc(Nc2cccc(Cl)c2)c2ncn(C(C)C)c2n1` gave a residual activity of 95%.
Work on `COc1ccc(-c2cnc3c(-c4ccsc4)cnn3c2)cc1` yielded a residual activity of 79.8%.

The molecules below were run against CHEK2 (human) (UniProt O96017) in the same assay as above. Conditions: compound 0.5 µM; ATP 10 µM.
CHEK2 (human), sequence (O96017 whole entry, looked up): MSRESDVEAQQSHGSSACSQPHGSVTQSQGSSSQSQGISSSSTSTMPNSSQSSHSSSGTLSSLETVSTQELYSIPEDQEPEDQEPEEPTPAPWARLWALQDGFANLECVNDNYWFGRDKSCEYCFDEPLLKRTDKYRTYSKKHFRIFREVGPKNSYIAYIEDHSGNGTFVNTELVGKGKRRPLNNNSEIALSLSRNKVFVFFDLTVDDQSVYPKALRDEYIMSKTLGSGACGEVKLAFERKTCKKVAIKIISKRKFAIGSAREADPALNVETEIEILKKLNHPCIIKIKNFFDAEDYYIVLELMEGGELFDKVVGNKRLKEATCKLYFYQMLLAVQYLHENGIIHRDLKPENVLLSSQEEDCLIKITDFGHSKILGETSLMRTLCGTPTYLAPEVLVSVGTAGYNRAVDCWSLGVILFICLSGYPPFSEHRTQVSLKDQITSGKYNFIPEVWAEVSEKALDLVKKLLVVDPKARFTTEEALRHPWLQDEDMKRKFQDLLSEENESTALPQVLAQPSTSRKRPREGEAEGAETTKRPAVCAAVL
With `Oc1ccc(-c2nc(-c3ccc(F)cc3)c(-c3ccncc3)[nH]2)cc1` the residual activity was 98.9%.
In the case of `Cc1ccc(NC(=O)c2ccc(CN3CCN(C)CC3)cc2)cc1Nc1nc(-c2cccnc2)cs1`, the residual activity was 101%.
In the case of `CC(C)[C@H](CO)Nc1nc(Nc2cccc(Cl)c2)c2ncn(C(C)C)c2n1`, the residual activity was 88.1%.
`COc1ccc(-c2cnc3c(-c4ccsc4)cnn3c2)cc1` showed a residual activity of 89.1%.

What follows are molecules tested against CSNK1G3 (human) (UniProt Q9Y6M4) in the same assay as above. Conditions: compound 0.5 µM; ATP 10 µM.
CSNK1G3 (human), sequence (Q9Y6M4 whole entry, looked up): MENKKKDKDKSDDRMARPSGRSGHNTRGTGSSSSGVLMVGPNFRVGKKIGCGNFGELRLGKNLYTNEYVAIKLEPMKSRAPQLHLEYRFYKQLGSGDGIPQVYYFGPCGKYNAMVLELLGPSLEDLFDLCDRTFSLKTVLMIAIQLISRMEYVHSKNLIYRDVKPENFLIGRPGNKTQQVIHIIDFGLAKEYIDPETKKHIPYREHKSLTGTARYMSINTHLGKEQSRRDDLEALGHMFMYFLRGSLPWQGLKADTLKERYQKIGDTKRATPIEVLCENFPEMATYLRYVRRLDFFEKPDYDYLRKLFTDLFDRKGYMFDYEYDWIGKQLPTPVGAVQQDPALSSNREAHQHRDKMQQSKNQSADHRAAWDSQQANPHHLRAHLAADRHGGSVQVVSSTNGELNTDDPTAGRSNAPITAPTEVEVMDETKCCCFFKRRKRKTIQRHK
With `Oc1ccc(-c2nc(-c3ccc(F)cc3)c(-c3ccncc3)[nH]2)cc1` the residual activity was 102%.
For `Cc1ccc(NC(=O)c2ccc(CN3CCN(C)CC3)cc2)cc1Nc1nc(-c2cccnc2)cs1`, the residual activity was 96.8%.
`CC(C)[C@H](CO)Nc1nc(Nc2cccc(Cl)c2)c2ncn(C(C)C)c2n1` gave a residual activity of 17.3%.
`COc1ccc(-c2cnc3c(-c4ccsc4)cnn3c2)cc1` gave a residual activity of 102%.

Each molecule was assayed against ROS1 (human) (UniProt P08922) in the same assay as above. Conditions: compound 0.5 µM; ATP 10 µM.
`Oc1ccc(-c2nc(-c3ccc(F)cc3)c(-c3ccncc3)[nH]2)cc1` gave a residual activity of 89.8%.
With `Cc1ccc(NC(=O)c2ccc(CN3CCN(C)CC3)cc2)cc1Nc1nc(-c2cccnc2)cs1` the residual activity was 91.5%.
With `CC(C)[C@H](CO)Nc1nc(Nc2cccc(Cl)c2)c2ncn(C(C)C)c2n1` the residual activity was 88.1%.
`COc1ccc(-c2cnc3c(-c4ccsc4)cnn3c2)cc1` gave a residual activity of 98.8%.

Each molecule was assayed against WEE1 (human) (UniProt P30291) in the same assay as above. Conditions: compound 0.5 µM; ATP 10 µM.
WEE1 (human), sequence (P30291 whole entry, looked up): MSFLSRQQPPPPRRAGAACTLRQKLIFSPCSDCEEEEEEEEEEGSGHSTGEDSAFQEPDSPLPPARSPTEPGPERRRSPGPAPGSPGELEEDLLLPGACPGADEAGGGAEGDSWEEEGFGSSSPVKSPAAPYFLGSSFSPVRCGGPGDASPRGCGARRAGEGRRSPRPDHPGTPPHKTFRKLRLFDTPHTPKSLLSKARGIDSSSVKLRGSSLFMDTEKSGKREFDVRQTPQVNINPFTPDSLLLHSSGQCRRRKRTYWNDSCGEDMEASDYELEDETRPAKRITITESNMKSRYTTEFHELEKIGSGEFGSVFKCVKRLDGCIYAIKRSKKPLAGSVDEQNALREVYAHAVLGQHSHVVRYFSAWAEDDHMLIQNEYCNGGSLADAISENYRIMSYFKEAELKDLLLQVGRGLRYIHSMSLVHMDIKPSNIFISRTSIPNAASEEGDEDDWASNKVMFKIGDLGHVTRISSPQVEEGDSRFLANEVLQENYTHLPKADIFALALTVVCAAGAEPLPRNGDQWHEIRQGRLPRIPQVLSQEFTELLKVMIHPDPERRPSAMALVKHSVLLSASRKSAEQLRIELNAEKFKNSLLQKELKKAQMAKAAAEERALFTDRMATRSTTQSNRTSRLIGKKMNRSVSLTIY
Molecule `Oc1ccc(-c2nc(-c3ccc(F)cc3)c(-c3ccncc3)[nH]2)cc1` has a residual activity of 94.9%.
In the case of `Cc1ccc(NC(=O)c2ccc(CN3CCN(C)CC3)cc2)cc1Nc1nc(-c2cccnc2)cs1`, the residual activity was 97%.
In the case of `CC(C)[C@H](CO)Nc1nc(Nc2cccc(Cl)c2)c2ncn(C(C)C)c2n1`, the residual activity was 82.6%.
Work on `COc1ccc(-c2cnc3c(-c4ccsc4)cnn3c2)cc1` yielded a residual activity of 102%.

These molecules were tested against GRK6 (human) (UniProt P43250) in the same assay as above. Conditions: compound 0.5 µM; ATP 10 µM.
Work on `Oc1ccc(-c2nc(-c3ccc(F)cc3)c(-c3ccncc3)[nH]2)cc1` yielded a residual activity of 99.7%.
Work on `Cc1ccc(NC(=O)c2ccc(CN3CCN(C)CC3)cc2)cc1Nc1nc(-c2cccnc2)cs1` yielded a residual activity of 104%.
Work on `CC(C)[C@H](CO)Nc1nc(Nc2cccc(Cl)c2)c2ncn(C(C)C)c2n1` yielded a residual activity of 98.3%.
For `COc1ccc(-c2cnc3c(-c4ccsc4)cnn3c2)cc1`, the residual activity was 99.9%.

The molecules below were run against PAK7 (human) (UniProt Q9P286) in the same assay as above. Conditions: compound 0.5 µM; ATP 10 µM.
`Oc1ccc(-c2nc(-c3ccc(F)cc3)c(-c3ccncc3)[nH]2)cc1` gave a residual activity of 107%.
For `Cc1ccc(NC(=O)c2ccc(CN3CCN(C)CC3)cc2)cc1Nc1nc(-c2cccnc2)cs1`, the residual activity was 92%.
`CC(C)[C@H](CO)Nc1nc(Nc2cccc(Cl)c2)c2ncn(C(C)C)c2n1` gave a residual activity of 76.8%.
Molecule `COc1ccc(-c2cnc3c(-c4ccsc4)cnn3c2)cc1` has a residual activity of 78.1%.

Each molecule was assayed against TAOK3 (human) (UniProt Q9H2K8) in the same assay as above. Conditions: compound 0.5 µM; ATP 10 µM.
With `Oc1ccc(-c2nc(-c3ccc(F)cc3)c(-c3ccncc3)[nH]2)cc1` the residual activity was 103%.
For `Cc1ccc(NC(=O)c2ccc(CN3CCN(C)CC3)cc2)cc1Nc1nc(-c2cccnc2)cs1`, the residual activity was 95.4%.
With `CC(C)[C@H](CO)Nc1nc(Nc2cccc(Cl)c2)c2ncn(C(C)C)c2n1` the residual activity was 91.1%.
With `COc1ccc(-c2cnc3c(-c4ccsc4)cnn3c2)cc1` the residual activity was 96.9%.

The molecules below were run against TNK2 (human) (UniProt Q07912) in the same assay as above. Conditions: compound 0.5 µM; ATP 10 µM.
In the case of `Oc1ccc(-c2nc(-c3ccc(F)cc3)c(-c3ccncc3)[nH]2)cc1`, the residual activity was 83.2%.
In the case of `Cc1ccc(NC(=O)c2ccc(CN3CCN(C)CC3)cc2)cc1Nc1nc(-c2cccnc2)cs1`, the residual activity was 95.7%.
`CC(C)[C@H](CO)Nc1nc(Nc2cccc(Cl)c2)c2ncn(C(C)C)c2n1` was tested, and the residual activity was 55.6%.
For `COc1ccc(-c2cnc3c(-c4ccsc4)cnn3c2)cc1`, the residual activity was 92.2%.

These molecules were tested against NTRK2 (human) (UniProt Q16620) in the same assay as above. Conditions: compound 0.5 µM; ATP 10 µM.
NTRK2 (human), sequence (Q16620 whole entry, looked up): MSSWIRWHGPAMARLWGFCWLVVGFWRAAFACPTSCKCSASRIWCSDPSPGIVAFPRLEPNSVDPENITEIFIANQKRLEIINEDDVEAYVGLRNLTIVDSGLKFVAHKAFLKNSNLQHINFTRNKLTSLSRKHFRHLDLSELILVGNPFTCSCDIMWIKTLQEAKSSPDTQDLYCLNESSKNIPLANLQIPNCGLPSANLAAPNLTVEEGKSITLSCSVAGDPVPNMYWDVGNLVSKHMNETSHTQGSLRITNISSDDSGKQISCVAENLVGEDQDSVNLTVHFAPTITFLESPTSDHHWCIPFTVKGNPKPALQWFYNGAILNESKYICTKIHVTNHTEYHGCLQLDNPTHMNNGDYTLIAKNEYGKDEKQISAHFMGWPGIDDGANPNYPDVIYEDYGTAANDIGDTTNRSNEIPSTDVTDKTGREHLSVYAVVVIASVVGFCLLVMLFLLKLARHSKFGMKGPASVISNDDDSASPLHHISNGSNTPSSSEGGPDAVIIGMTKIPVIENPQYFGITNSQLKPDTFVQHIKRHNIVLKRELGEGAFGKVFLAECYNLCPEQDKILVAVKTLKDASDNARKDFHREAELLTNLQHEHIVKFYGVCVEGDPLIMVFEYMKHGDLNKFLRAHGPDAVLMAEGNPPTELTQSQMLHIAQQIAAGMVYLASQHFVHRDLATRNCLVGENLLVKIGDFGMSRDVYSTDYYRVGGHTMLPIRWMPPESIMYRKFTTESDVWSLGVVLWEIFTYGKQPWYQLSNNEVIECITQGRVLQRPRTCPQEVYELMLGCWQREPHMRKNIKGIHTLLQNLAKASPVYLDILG
`Oc1ccc(-c2nc(-c3ccc(F)cc3)c(-c3ccncc3)[nH]2)cc1` showed a residual activity of 102%.
`Cc1ccc(NC(=O)c2ccc(CN3CCN(C)CC3)cc2)cc1Nc1nc(-c2cccnc2)cs1` showed a residual activity of 101%.
With `CC(C)[C@H](CO)Nc1nc(Nc2cccc(Cl)c2)c2ncn(C(C)C)c2n1` the residual activity was 33.4%.
For `COc1ccc(-c2cnc3c(-c4ccsc4)cnn3c2)cc1`, the residual activity was 82.9%.

Each molecule was assayed against AKT1 (human) (UniProt P31749) in the same assay as above. Conditions: compound 0.5 µM; ATP 10 µM.
For `Oc1ccc(-c2nc(-c3ccc(F)cc3)c(-c3ccncc3)[nH]2)cc1`, the residual activity was 101%.
Work on `Cc1ccc(NC(=O)c2ccc(CN3CCN(C)CC3)cc2)cc1Nc1nc(-c2cccnc2)cs1` yielded a residual activity of 93.2%.
Work on `CC(C)[C@H](CO)Nc1nc(Nc2cccc(Cl)c2)c2ncn(C(C)C)c2n1` yielded a residual activity of 102%.
In the case of `COc1ccc(-c2cnc3c(-c4ccsc4)cnn3c2)cc1`, the residual activity was 92.4%.

What follows are molecules tested against LRRK2 (human) (UniProt Q5S007) in the same assay as above. Conditions: compound 0.5 µM; ATP 10 µM.
`Oc1ccc(-c2nc(-c3ccc(F)cc3)c(-c3ccncc3)[nH]2)cc1` gave a residual activity of 95.8%.
In the case of `Cc1ccc(NC(=O)c2ccc(CN3CCN(C)CC3)cc2)cc1Nc1nc(-c2cccnc2)cs1`, the residual activity was 107%.
`CC(C)[C@H](CO)Nc1nc(Nc2cccc(Cl)c2)c2ncn(C(C)C)c2n1` showed a residual activity of 77.7%.
Molecule `COc1ccc(-c2cnc3c(-c4ccsc4)cnn3c2)cc1` has a residual activity of 68.1%.

What follows are molecules tested against IGF1R (human) (UniProt P08069) in the same assay as above. Conditions: compound 0.5 µM; ATP 10 µM.
IGF1R (human), sequence (P08069 whole entry, looked up): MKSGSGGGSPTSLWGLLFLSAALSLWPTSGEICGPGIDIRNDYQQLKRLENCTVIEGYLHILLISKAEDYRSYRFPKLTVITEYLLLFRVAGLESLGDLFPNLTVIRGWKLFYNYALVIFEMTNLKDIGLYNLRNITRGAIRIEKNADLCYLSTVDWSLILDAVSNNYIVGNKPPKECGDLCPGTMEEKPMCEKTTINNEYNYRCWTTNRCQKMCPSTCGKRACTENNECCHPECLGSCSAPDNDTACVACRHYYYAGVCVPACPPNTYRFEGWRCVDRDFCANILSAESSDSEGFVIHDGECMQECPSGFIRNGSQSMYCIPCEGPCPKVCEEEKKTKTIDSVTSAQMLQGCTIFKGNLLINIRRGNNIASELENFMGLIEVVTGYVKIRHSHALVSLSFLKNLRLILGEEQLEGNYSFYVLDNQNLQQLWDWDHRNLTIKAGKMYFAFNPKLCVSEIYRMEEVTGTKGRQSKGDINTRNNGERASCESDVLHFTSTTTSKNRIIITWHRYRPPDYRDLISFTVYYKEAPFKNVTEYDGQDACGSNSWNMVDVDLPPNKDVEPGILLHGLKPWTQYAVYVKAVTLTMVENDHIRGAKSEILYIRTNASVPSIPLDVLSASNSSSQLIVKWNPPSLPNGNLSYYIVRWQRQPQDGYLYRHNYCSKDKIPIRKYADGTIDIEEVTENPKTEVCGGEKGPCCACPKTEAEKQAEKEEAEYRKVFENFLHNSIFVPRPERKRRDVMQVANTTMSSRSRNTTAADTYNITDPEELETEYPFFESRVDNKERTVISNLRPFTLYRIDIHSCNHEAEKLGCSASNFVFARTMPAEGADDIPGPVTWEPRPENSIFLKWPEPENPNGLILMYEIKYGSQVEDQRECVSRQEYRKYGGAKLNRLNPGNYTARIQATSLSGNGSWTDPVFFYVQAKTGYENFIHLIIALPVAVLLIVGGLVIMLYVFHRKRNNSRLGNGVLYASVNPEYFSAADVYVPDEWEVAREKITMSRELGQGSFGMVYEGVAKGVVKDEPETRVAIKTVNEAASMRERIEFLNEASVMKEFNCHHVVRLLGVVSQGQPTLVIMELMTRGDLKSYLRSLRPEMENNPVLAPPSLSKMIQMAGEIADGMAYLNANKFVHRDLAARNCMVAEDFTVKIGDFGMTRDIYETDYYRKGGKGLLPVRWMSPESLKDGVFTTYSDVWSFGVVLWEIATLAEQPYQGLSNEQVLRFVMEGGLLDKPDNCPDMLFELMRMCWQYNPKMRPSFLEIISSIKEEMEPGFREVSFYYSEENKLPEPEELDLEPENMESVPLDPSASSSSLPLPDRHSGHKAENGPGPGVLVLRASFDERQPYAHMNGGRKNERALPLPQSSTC
`Oc1ccc(-c2nc(-c3ccc(F)cc3)c(-c3ccncc3)[nH]2)cc1` showed a residual activity of 108%.
`Cc1ccc(NC(=O)c2ccc(CN3CCN(C)CC3)cc2)cc1Nc1nc(-c2cccnc2)cs1` gave a residual activity of 101%.
`CC(C)[C@H](CO)Nc1nc(Nc2cccc(Cl)c2)c2ncn(C(C)C)c2n1` was tested, and the residual activity was 100%.
`COc1ccc(-c2cnc3c(-c4ccsc4)cnn3c2)cc1` showed a residual activity of 91.3%.

Each molecule was assayed against PLK1 (human) (UniProt P53350) in the same assay as above. Conditions: compound 0.5 µM; ATP 10 µM.
`Oc1ccc(-c2nc(-c3ccc(F)cc3)c(-c3ccncc3)[nH]2)cc1` gave a residual activity of 100%.
`Cc1ccc(NC(=O)c2ccc(CN3CCN(C)CC3)cc2)cc1Nc1nc(-c2cccnc2)cs1` showed a residual activity of 101%.
For `CC(C)[C@H](CO)Nc1nc(Nc2cccc(Cl)c2)c2ncn(C(C)C)c2n1`, the residual activity was 89.2%.
For `COc1ccc(-c2cnc3c(-c4ccsc4)cnn3c2)cc1`, the residual activity was 101%.

Each molecule was assayed against HIPK1 (human) (UniProt Q86Z02) in the same assay as above. Conditions: compound 0.5 µM; ATP 10 µM.
HIPK1 (human), sequence (Q86Z02 whole entry, looked up): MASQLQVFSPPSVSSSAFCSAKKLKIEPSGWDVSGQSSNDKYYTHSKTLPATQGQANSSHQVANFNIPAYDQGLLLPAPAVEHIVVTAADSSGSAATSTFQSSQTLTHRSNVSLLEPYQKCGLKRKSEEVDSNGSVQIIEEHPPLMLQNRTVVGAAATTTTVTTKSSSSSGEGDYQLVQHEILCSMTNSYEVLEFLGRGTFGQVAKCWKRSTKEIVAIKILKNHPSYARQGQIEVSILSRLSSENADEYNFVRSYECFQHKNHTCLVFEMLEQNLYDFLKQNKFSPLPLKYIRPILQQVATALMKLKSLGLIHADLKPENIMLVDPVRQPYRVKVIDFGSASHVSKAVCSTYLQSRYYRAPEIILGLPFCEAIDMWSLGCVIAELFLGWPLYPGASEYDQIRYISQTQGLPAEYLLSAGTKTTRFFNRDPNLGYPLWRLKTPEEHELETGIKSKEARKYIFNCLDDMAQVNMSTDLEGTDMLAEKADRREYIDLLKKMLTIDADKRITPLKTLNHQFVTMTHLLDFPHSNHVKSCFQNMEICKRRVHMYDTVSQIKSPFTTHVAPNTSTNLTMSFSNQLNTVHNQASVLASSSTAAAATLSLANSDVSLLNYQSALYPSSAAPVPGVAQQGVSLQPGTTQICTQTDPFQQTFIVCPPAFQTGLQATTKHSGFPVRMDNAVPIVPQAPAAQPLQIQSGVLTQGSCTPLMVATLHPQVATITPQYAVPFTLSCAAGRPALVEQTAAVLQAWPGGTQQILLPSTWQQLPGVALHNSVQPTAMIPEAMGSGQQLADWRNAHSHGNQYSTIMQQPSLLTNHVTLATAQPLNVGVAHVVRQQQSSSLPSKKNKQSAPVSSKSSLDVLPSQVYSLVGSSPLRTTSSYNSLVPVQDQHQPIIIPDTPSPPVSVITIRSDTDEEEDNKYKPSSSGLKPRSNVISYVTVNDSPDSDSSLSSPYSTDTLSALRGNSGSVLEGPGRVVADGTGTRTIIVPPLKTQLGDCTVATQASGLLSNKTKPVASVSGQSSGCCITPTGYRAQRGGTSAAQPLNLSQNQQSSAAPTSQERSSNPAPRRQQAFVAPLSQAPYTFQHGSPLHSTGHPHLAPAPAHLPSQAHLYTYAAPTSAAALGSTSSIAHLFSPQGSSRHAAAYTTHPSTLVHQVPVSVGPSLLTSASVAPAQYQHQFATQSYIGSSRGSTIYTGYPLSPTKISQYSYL
`Oc1ccc(-c2nc(-c3ccc(F)cc3)c(-c3ccncc3)[nH]2)cc1` was tested, and the residual activity was 98.2%.
In the case of `Cc1ccc(NC(=O)c2ccc(CN3CCN(C)CC3)cc2)cc1Nc1nc(-c2cccnc2)cs1`, the residual activity was 97.4%.
`CC(C)[C@H](CO)Nc1nc(Nc2cccc(Cl)c2)c2ncn(C(C)C)c2n1` gave a residual activity of 103%.
In the case of `COc1ccc(-c2cnc3c(-c4ccsc4)cnn3c2)cc1`, the residual activity was 99.8%.

Each molecule was assayed against CDC42BPB (human) (UniProt Q9Y5S2) in the same assay as above. Conditions: compound 0.5 µM; ATP 10 µM.
`Oc1ccc(-c2nc(-c3ccc(F)cc3)c(-c3ccncc3)[nH]2)cc1` was tested, and the residual activity was 103%.
`Cc1ccc(NC(=O)c2ccc(CN3CCN(C)CC3)cc2)cc1Nc1nc(-c2cccnc2)cs1` showed a residual activity of 98.1%.
`CC(C)[C@H](CO)Nc1nc(Nc2cccc(Cl)c2)c2ncn(C(C)C)c2n1` gave a residual activity of 108%.
Molecule `COc1ccc(-c2cnc3c(-c4ccsc4)cnn3c2)cc1` has a residual activity of 83.4%.

These molecules were tested against CHUK (human) (UniProt O15111) in the same assay as above. Conditions: compound 0.5 µM; ATP 10 µM.
`Oc1ccc(-c2nc(-c3ccc(F)cc3)c(-c3ccncc3)[nH]2)cc1` showed a residual activity of 107%.
`Cc1ccc(NC(=O)c2ccc(CN3CCN(C)CC3)cc2)cc1Nc1nc(-c2cccnc2)cs1` showed a residual activity of 96.2%.
Molecule `CC(C)[C@H](CO)Nc1nc(Nc2cccc(Cl)c2)c2ncn(C(C)C)c2n1` has a residual activity of 106%.
`COc1ccc(-c2cnc3c(-c4ccsc4)cnn3c2)cc1` gave a residual activity of 94.5%.
